# Measurements published in the supplement of paper PMC8149375.
# How the values were obtained:
# Settings in all cases: treatment: drug + dasatinib (fixed dose, not stated); 5 days
# [1] = system: 769-P; assay: AUC of dose-response viability curve, drug + dasatinib, normalised to DMSO (arbitrary (AUC of normalised viability)); higher = less growth inhibition
# Protocol: (§1)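 Primary HTS combination arm: 8 RCC cell lines treated with 8 doses (up to 10 uM) of each library drug plus a fixed dose of dasatinib (dose not stated) for 5 days; viability read by CellTiter-Glo and normalised to DMSO. GI50 was fitted with XLfit, AUC is the area under the dose-response curve, and minimum viability is the lowest fraction of DMSO viability across doses.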
# [2] = system: ACHN; assay: as above
# Protocol: as §1
# [3] = system: A498; assay: as above
# Protocol: as §1
# [4] = system: 786-O; assay: as above
# Protocol: as §1
# [5] = system: SN12C; assay: as above
# Protocol: as §1
# [6] = system: UO-31; assay: as above
# Protocol: as §1
# [7] = system: CAKI-1; assay: as above
# Protocol: as §1
# [8] = system: TK-10; assay: as above
# Protocol: as §1
# [9] = system: 769-P; assay: minimum viability across doses, drug + dasatinib, relative to DMSO (fraction); higher = less growth inhibition
# Protocol: as §1
# [10] = system: ACHN; assay: as above
# Protocol: as §1
# [11] = system: A498; assay: as above
# Protocol: as §1
# [12] = system: 786-O; assay: as above
# Protocol: as §1
# [13] = system: SN12C; assay: as above
# Protocol: as §1
# [14] = system: UO-31; assay: as above
# Protocol: as §1
# [15] = system: CAKI-1; assay: as above
# Protocol: as §1
# [16] = system: TK-10; assay: as above
# Protocol: as §1
# [17] = system: 769-P; assay: GI50 of drug in presence of dasatinib; higher = less potent
# Protocol: as §1
# [18] = system: ACHN; assay: as above
# Protocol: as §1
# [19] = system: A498; assay: as above
# Protocol: as §1
# [20] = system: 786-O; assay: as above
# Protocol: as §1
# [21] = system: SN12C; assay: as above
# Protocol: as §1
# [22] = system: UO-31; assay: as above
# Protocol: as §1
# [23] = system: CAKI-1; assay: as above
# Protocol: as §1
# [24] = system: TK-10; assay: as above
# Protocol: as §1
GI50 of drug [18],GI50 of drug [20],SMILES,AUC of dose-response viability curve [1],AUC of dose-response viability curve [2],AUC of dose-response viability curve [3],AUC of dose-response viability curve [4],AUC of dose-response viability curve [5],AUC of dose-response viability curve [6],AUC of dose-response viability curve [7],AUC of dose-response viability curve [8],minimum viability across doses [9],minimum viability across doses [10],minimum viability across doses [11],minimum viability across doses [12],minimum viability across doses [13],minimum viability across doses [14],minimum viability across doses [15],minimum viability across doses [16],GI50 of drug [17],GI50 of drug [19],GI50 of drug [21],GI50 of drug [22],GI50 of drug [23],GI50 of drug [24]
14.1 nM,1340 nM,C=CC(=O)Nc1cc2c(Nc3ccc(F)c(Cl)c3)ncnc2cc1OCCCN1CCOCC1 [CI-1033 (Canertinib)] + Cc1nc(Nc2ncc(C(=O)Nc3c(C)cccc3Cl)s2)cc(N2CCN(CCO)CC2)n1 [dasatinib],1.46,1.31,2.74,2.11,2.13,2.4,1.84,1.79,0.185,0.11,0.0275,0.372,0.295,0.00946,0.0894,0.133,46.4 nM,4070 nM,969 nM,1330 nM,739 nM,283 nM
137 nM,482 nM,Cc1nc(N)sc1-c1ccnc(Nc2ccc(N3CCOCC3)cc2)n1 [CYC116] + Cc1nc(Nc2ncc(C(=O)Nc3c(C)cccc3Cl)s2)cc(N2CCN(CCO)CC2)n1 [dasatinib],1.92,1.35,3.01,1.74,2,2.86,1.45,1.96,0.074,0.0722,0.381,0.0032,0.0981,0.0118,0.00751,0.0917,1020 nM,6520 nM,831 nM,2020 nM,332 nM,640 nM
210 nM,1350 nM,COc1cc2c(Oc3ccc4[nH]c(C)cc4c3F)ncnc2cc1OCCCN1CCCC1 [Cediranib (AZD2171)] + Cc1nc(Nc2ncc(C(=O)Nc3c(C)cccc3Cl)s2)cc(N2CCN(CCO)CC2)n1 [dasatinib],2.35,1.61,2.63,2.21,1.85,2.17,1.59,2.35,0.145,0.0558,0.154,0.13,0.0758,0.014,0.019,0.0412,3970 nM,2390 nM,355 nM,617 nM,287 nM,2240 nM
796 nM,884 nM,N#CCNC(=O)c1ccc(-c2ccnc(Nc3ccc(N4CCOCC4)cc3)n2)cc1 [Cyt387] + Cc1nc(Nc2ncc(C(=O)Nc3c(C)cccc3Cl)s2)cc(N2CCN(CCO)CC2)n1 [dasatinib],2.24,1.72,3.6,1.73,2.27,2.78,1.83,2.14,0.125,0.0607,0.897,0.0246,0.271,0.00938,0.0305,0.0961,2110 nM,> 10000 nM,2910 nM,2550 nM,325 nM,1630 nM
499 nM,293 nM,CNC(=O)c1cc(Oc2ccc(NC(=O)Nc3cc(C(C)(C)C)nn3-c3ccc4ncccc4c3)c(F)c2)ccn1 [DCC-2036 (Rebastinib)] + Cc1nc(Nc2ncc(C(=O)Nc3c(C)cccc3Cl)s2)cc(N2CCN(CCO)CC2)n1 [dasatinib],2.21,1.71,3.51,1.88,1.87,2.84,1.54,2.29,0.185,0.0458,0.0121,0.208,0.0277,0.00958,0.053,0.0566,1540 nM,4420 nM,319 nM,1100 nM,125 nM,1330 nM
44.8 nM,4070 nM,CN1CCN(c2ccc3nc(-c4c(N)c5c(F)cccc5[nH]c4=O)[nH]c3c2)CC1 [Dovitinib (TKI-258)] + Cc1nc(Nc2ncc(C(=O)Nc3c(C)cccc3Cl)s2)cc(N2CCN(CCO)CC2)n1 [dasatinib],2.06,1.38,2.49,2.58,1.6,2.36,1.5,2.33,0.0592,0.14,0.239,0.263,0.0733,0.0928,0.0724,0.277,1410 nM,2330 nM,266 nM,697 nM,148 nM,1890 nM
11.7 nM,3480 nM,CC(O)C(=O)O.CC(O)C(=O)O.CN1CCN(c2ccc3nc(-c4c(N)c5c(F)cccc5[nH]c4=O)[nH]c3c2)CC1 [Dovitinib Dilactic acid (TKI258 Dilactic acid)] + Cc1nc(Nc2ncc(C(=O)Nc3c(C)cccc3Cl)s2)cc(N2CCN(CCO)CC2)n1 [dasatinib],2.2,0.989,3.14,2.64,1.8,3.44,1.45,2.12,0.0213,0.0981,0.303,0.139,0.0502,0.124,0.0435,0.289,1750 nM,4270 nM,352 nM,1320 nM,98.2 nM,1070 nM
